Values of other authors as cited in US20070092561A1, “Water-Soluble Aspirin Composition” (priority 2005, published 2007).
Where two headings read alike, the source gives them in different places.

Structure (SMILES): CC(=O)Oc1ccccc1C(=O)O [aspirin]
- occurrence of side-effects (gastric irritation, inflammation, heartburn, nausea, pain) (aspirin users): 2-10%
- occurrence of side-effects (gastric irritation, inflammation, heartburn, nausea, pain) (in chronic arthritis): about 25%
